Results reported in the supplement of paper PMC5579334.
± gives the standard deviation of the averaged measurements.

Assays:
HS-PSS [1] = experiment: drug sensitivity score (DSS, CellTiter-Glo viability, 72 h) (DSS (dimensionless)); higher = more sensitive; extreme values may be limits of the assay
Method in brief: (§1)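 MPNST cell lines and primary human Schwann cells (750–1000 cells per well) went into 384-well plates preprinted with each compound at five concentrations in 10-fold steps. Plates were incubated 72 h at 37 °C, 5% CO2. Viability was read as CellTiter-Glo ATP luminescence, scaled between vehicle and positive-control wells, with duplicates averaged where present. Percent inhibition is at the top concentration; drug sensitivity score and relative IC50 (censored at top concentration) come from four-parameter logistic fits.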

ST8814 [2] = experiment: as above
Method in brief: as §1

HS-Sch-2 [3] = experiment: as above
Method in brief: as §1

STS26T [4] = experiment: as above
Method in brief: as §1

S462 [5] = experiment: as above
Method in brief: as §1

S1507-2 [6] = experiment: as above
Method in brief: as §1

YST-1 [7] = experiment: as above
Method in brief: as §1

[8] = tested on: HSC1 (primary human Schwann cells); experiment: as above
Method in brief: as §1

[9] = tested on: HSC2 (primary human Schwann cells); experiment: as above
Method in brief: as §1

HS-PSS [10] = experiment: drug sensitivity score (DSS, CellTox-Green cytotoxicity, 72 h) (DSS (dimensionless)); higher = more cytotoxic; extreme values may be limits of the assay
Method in brief: (§2)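 MPNST cell lines and primary human Schwann cells were incubated 72 h at 37 °C in 384-well plates holding five 10-fold compound dilutions. CellTox-Green was added before seeding at a final 1:1000 dilution and reported fluorescence from DNA released by disrupted cells. Signals were scaled to vehicle and positive-control wells, and cultures failing plate quality control were dropped. Drug sensitivity score and relative IC50 come from four-parameter logistic fits, with IC50 censored at the top concentration.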

ST8814 [11] = experiment: as above
Method in brief: as §2

STS26T [12] = experiment: as above
Method in brief: as §2

S1507-2 [13] = experiment: as above
Method in brief: as §2

[14] = tested on: HSC1 (primary human Schwann cells); experiment: as above
Method in brief: as §2

[15] = tested on: HSC2 (primary human Schwann cells); experiment: as above
Method in brief: as §2

HS-PSS [16] = experiment: % inhibition of CellTiter-Glo viability at highest tested concentration (72 h), relative to DMSO and benzethonium chloride controls; higher = more inhibition
Method in brief: as §1

ST8814 [17] = experiment: as above
Method in brief: as §1

HS-Sch-2 [18] = experiment: as above
Method in brief: as §1

STS26T [19] = experiment: as above
Method in brief: as §1

S462 [20] = experiment: as above
Method in brief: as §1

S1507-2 [21] = experiment: as above
Method in brief: as §1

YST-1 [22] = experiment: as above
Method in brief: as §1

[23] = tested on: HSC1 (primary human Schwann cells); experiment: as above
Method in brief: as §1

[24] = tested on: HSC2 (primary human Schwann cells); experiment: as above
Method in brief: as §1

Row | SMILES | drug sensitivity score (HS-PSS [1]) | drug sensitivity score (ST8814 [2]) | drug sensitivity score (HS-Sch-2 [3]) | drug sensitivity score (STS26T [4]) | drug sensitivity score (S462 [5]) | drug sensitivity score (S1507-2 [6]) | drug sensitivity score (YST-1 [7]) | drug sensitivity score [8] | drug sensitivity score [9] | drug sensitivity score (HS-PSS [10]) | drug sensitivity score (ST8814 [11]) | drug sensitivity score (STS26T [12]) | drug sensitivity score (S1507-2 [13]) | drug sensitivity score [14] | drug sensitivity score [15] | % inhibition (HS-PSS [16]) [%] | % inhibition (ST8814 [17]) [%] | % inhibition (HS-Sch-2 [18]) [%] | % inhibition (STS26T [19]) [%] | % inhibition (S462 [20]) [%] | % inhibition (S1507-2 [21]) [%] | % inhibition (YST-1 [22]) [%] | % inhibition [23] [%] | % inhibition [24] [%]
1 | Cc1ccc(F)c(NC(=O)Nc2ccc(-c3cccc4[nH]nc(N)c34)cc2)c1 [Linifanib] (max concentration tested 1000 nM) | 0 | 0 | 0 | 0 | 0.159 ± 0.18 | 0.308 ± 0.44 | 0 | 0 | 0.0016 | 0 | 0 | 0 | 0 | 0 | 0 | 9.61 | 10.9 | 1.61 | 5.78 | 14.7 ± 3.3 | 10 ± 8.1 | 6.46 | -2.2 | 11.5
2 | Nc1ncnc2c1c(COc1cccc(Cl)c1)nn2C1CCOCC1 (max concentration tested 10000 nM) | 0 | 0 | 0.64 | 0.587 | 0 | 0.0549 ± 0.078 | 0 | 0.203 | 0 | 0 | 0 | 0 | 0.494 ± 0.64 | 0 | 0 | 7.3 | 5.84 | 12.5 | 18.3 | -3.41 ± 5.9 | 9.42 ± 7.2 | 9.51 | 11.5 | -5.42
3 | NC1(c2ccc(-c3nc4ccn5c(=O)[nH]nc5c4cc3-c3ccccc3)cc2)CCC1 [MK-2206] (max concentration tested 1000 nM) | 1.05 | 0 | 0.49 | 2.7 | 0.275 ± 0.12 | 2.75 ± 0.87 | 4.28 | 0.083 | 0 | 0 | 0 | 0 | 0 | 0 | 0 | 18 | 2.43 | 13.3 | 29.9 | 10.5 ± 1.5 | 23.8 ± 1.6 | 46.2 | 11 | -3.64
4 | CC/C(=C(\c1ccc(O)cc1)c1ccc(OCCN(C)C)cc1)c1ccccc1 [4-hydroxytamoxifen] (max concentration tested 10000 nM) | 6.38 | 5.33 | 7.34 | 3.45 | 3.82 ± 1.3 | 5.41 ± 1.5 | 2.94 | 5.78 | 5.65 | 3.7 | 4.88 | 1.86 | 0.592 ± 0.84 | 1.81 | 7.53 | 88.4 | 75.7 | 93.4 | 53 | 46.1 ± 9.7 | 55.9 ± 8.7 | 32.7 | 72.5 | 82.5
5 | NC(=O)Nc1cc(-c2cccc(F)c2)sc1C(=O)N[C@H]1CCCNC1 [AZD7762] (max concentration tested 1000 nM) | 4.8 | 8.3 | 12.7 | 9.05 | 14.7 ± 0.2 | 10.9 ± 0.13 | 4.02 | 6.7 | 3.95 | 0.32 | 5.42 | 9.01 | 3.7 ± 0.91 | 3.66 | 5.55 | 61.9 | 86.2 | 90.7 | 90.7 | 98.22 ± 0.35 | 80.47 ± 0.4 | 71.9 | 72.8 | 70.2
6 | Nc1ncnc2c1nc(Cl)n2[C@@H]1O[C@H](CO)[C@@H](O)[C@H]1O [8-chloro-adenosine] (max concentration tested 50000 nM) | 5.54 | 9.48 | 11.1 | 12.3 | 14.21 ± 0.085 | 12.4 ± 2.1 | 12.9 | 9.38 | 9.83 | 0 | 0.449 | 6.31 | 1.46 ± 1.7 | 0 | 0 | 55.6 | 54.5 | 80 | 86.8 | 82.1 ± 4.6 | 74 ± 0.56 | 88.6 | 73.8 | 73.7
7 | CC(=O)O[C@@]12CO[C@@H]1C[C@H](O)[C@@]1(C)C(=O)[C@H](O)C3=C(C)[C@@H](OC(=O)[C@H](O)[C@@H](NC(=O)OC(C)(C)C)c4ccccc4)C[C@@](O)([C@@H](OC(=O)c4ccccc4)[C@H]21)C3(C)C [Docetaxel] (max concentration tested 1000 nM) | 15.2 | 24.8 | 30.8 | 35.5 | 36.7 ± 1.5 | 20.5 ± 0.58 | 29.1 | 21.9 | 22.3 | 0.9 | 27.1 | 36 | 22 ± 1.6 | 17.3 | 24.4 | 52.7 | 89.2 | 96.2 | 99.9 | 96.9 ± 1.2 | 83.195 ± 0.0062 | 75.9 | 71.7 | 74.4
8 | C=CCc1cccc(/C=N/NC(=O)CN2CCN(Cc3ccccc3)CC2)c1O [PAC-1] (max concentration tested 10000 nM) | 6.09 | 3.36 | 10.1 | 3.59 | 3.7 ± 0.048 | 2.43 ± 0.66 | 4.81 | 6.29 | 8.57 | 2.32 | 0.202 | 0 | 0 | 0 | 0 | 84.3 | 57.7 | 91.1 | 54.6 | 73.6 ± 1.1 | 52.7 ± 7.1 | 69.4 | 75.5 | 85.9
9 | CC(C)c1c(C(=O)Nc2ccccc2)c(-c2ccccc2)c(-c2ccc(F)cc2)n1CC[C@@H](O)C[C@@H](O)CC(=O)O [Atorvastatin] (max concentration tested 10000 nM) | 6.74 | 3.73 | 6.02 | 5.4 | 9.93 ± 0.43 | 2.53 ± 0.48 | 6.47 | 16.6 | 19.7 | 0 | 2.32 | 2.9 | 1.46 ± 2.1 | 17.1 | 19.6 | 75.3 | 55.2 | 80.5 | 69.6 | 96.5 ± 1.1 | 41.9 ± 8 | 89.5 | 97.5 | 101
10 | CC(O)(CS(=O)(=O)c1ccc(F)cc1)C(=O)Nc1ccc(C#N)c(C(F)(F)F)c1 (configuration not stated) [Bicalutamide] (max concentration tested 10000 nM) | 0.45 | 0 | 0.01 | 0.0466 | 0.149 ± 0.21 | 0 | 0 | 0.0562 | 0 | 0 | 0 | 0 | 0 | 0 | 0 | 14.1 | 7.2 | 12.8 | 12 | 7.3 ± 7.9 | 0.808 ± 0.64 | -3.03 | 11.9 | -3.88
11 | CNC(=O)c1cc(Oc2ccc(NC(=O)Nc3ccc(Cl)c(C(F)(F)F)c3)cc2)ccn1 [Sorafenib] (max concentration tested 1000 nM) | 0 | 0 | 0 | 0 | 0 | 0 | 0 | 0 | 0 | 0 | 0 | 0 | 0 | 0 | 0 | -0.19 | -4.54 | -11.4 | -3.72 | -1.24 ± 2.1 | -6.35 ± 3.5 | 11.4 | -5.93 | -21.1
12 | C[C@]1(O)C[C@@H](c2nc(-c3ccc4ccc(-c5ccccc5)nc4c3)c3c(N)nccn32)C1 [Linsitinib] (max concentration tested 10000 nM) | 0 | 0 | 2.13 | 0.527 | 5.33 ± 1.5 | 5.34 ± 1.7 | 11.6 | 5.89 | 0 | 0 | 0 | 0 | 0.228 ± 0.32 | 0 | 0 | -2.81 | 11.1 | 25.6 | 13 | 30.7 ± 0.84 | 24.6 ± 0.99 | 82.4 | 27 | 11.7
13 | Cn1c(CCCC(=O)O)nc2cc(N(CCCl)CCCl)ccc21 [Bendamustine] (max concentration tested 10000 nM) | 0 | 0 | 0 | 0 | 0 | 0 | 0.01 | 0 | 0 | 0 | 0 | 0 | 0 | 0 | 0 | 4.27 | -3.13 | 9.41 | 0.816 | -6.58 ± 4 | -3.59 ± 5.5 | 10.4 | 5.73 | 8.93
